One assay concerns T1, purified human Hsp90.
T1 construct: purified human Hsp90 (Stressgen, SPP-770)
The experiment in a line: Hsp90 binding assay: displacement of BODIPY-labeled geldanamycin measured by fluorescence polarization. As to conditions: 5 μM compound; BODIPY-GM 10 nM, Hsp90 30 nM, overnight at room temperature. In short, it runs like this:
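Purified human Hsp90 at 30 nM and 10 nM BODIPY-GM tracer were incubated overnight at room temperature with compound in 2% DMSO. The buffer was 20 mM HEPES-KOH pH 7.3, 50 mM KCl, 5 mM MgCl2, 20 mM Na2MoO4, 2 mM DTT. Background-subtracted mP values read at 485/530 nm were normalized to DMSO wells to give % inhibition.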
For orientation: Fluorescence polarisation rises when a labelled molecule tumbles more slowly, as on binding a larger partner.
For `CC(C)C(=O)N1CCC(CCn2cnc(N)c3nc(Sc4cc5c(cc4Br)OCO5)nc2-3)CC1` [compound 26, 8-[(6-Bromo-1,3-benzodioxol-5-yl)thio]-3-[2-(1-isobutyrylpiperidin-4-yl)ethyl]-3H-purin-6-amine], the “GM displacement from purified Hsp90 measured by FP Inhibition by 5 μM compd. (%)” value is 55.0%.

On to `CCN(CC)C(=O)CN1CCC(CCn2cnc(N)c3nc(Sc4cc5c(cc4Br)OCCO5)nc2-3)CC1` [compound 28, 2-[4-(2-{6-Amino-8-[(7-bromo-2,3-dihydro-1,4-benzodioxin-6-yl)thio]-3H-purin-3-yl}ethyl)piperidin-1-yl]-N,N-diethylacetamide], for which the “GM displacement from purified Hsp90 measured by FP Inhibition by 5 μM compd. (%)” value came out at 40.0%. The same measure, in the same setting: in the case of `Nc1ncn(CCn2c(=O)n3n(c2=O)CC=CC3)c2nc(Sc3cc4c(cc3Br)OCO4)nc1-2` [compound 30, 2-(2-{6-Amino-8-[(6-bromo-1,3-benzodioxol-5-yl)thio]-3H-purin-3-yl}ethyl)-5,8-dihydro-1H-[1,2,4]triazolo[1,2-a]pyridazine-1,3(2H)-dione] it was 23.0%; in that of `N#CCCN1CCC(CCn2cnc(N)c3nc(Sc4cc5c(cc4Br)OCO5)nc2-3)CC1` [compound 32], 9.0%. `COCC(=O)N1CCC(CCn2cnc(N)c3nc(Sc4cc5c(cc4C#N)OCO5)nc2-3)CC1` [compound 34, 6-[(6-Amino-3-{2-[1-(methoxyacetyl)piperidin-4-yl]ethyl}-3H-purin-8-yl)thio]-1,3-benzodioxole-5-carbonitrile]: the “GM displacement from purified Hsp90 measured by FP Inhibition by 5 μM compd. (%)” value was 88.0%. Take `CO[C@H](C)C(=O)N1CCC(CCn2cnc(N)c3nc(Sc4cc5c(cc4C#N)OCO5)nc2-3)CC1` [compound 36, 6-{[6-Amino-3-(2-{1-[(2R)-2-methoxypropanoyl]piperidin-4-yl}ethyl)-3H-purin-8-yl]thio}-1,3-benzodioxole-5-carbonitrile]: the “GM displacement from purified Hsp90 measured by FP Inhibition by 5 μM compd. (%)” value stood at 35.0%. As to `CO[C@@H](C)C(=O)N1CCC(CCn2cnc(N)c3nc(Sc4cc5c(cc4C#N)OCO5)nc2-3)CC1` [compound 38, 6-{[6-Amino-3-(2-{1-[(2S)-2-methoxypropanoyl]piperidin-4-yl}ethyl)-3H-purin-8-yl]thio}-1,3-benzodioxole-5-carbonitrile], the “GM displacement from purified Hsp90 measured by FP Inhibition by 5 μM compd. (%)” value is recorded as 36.0%. For the compound `N#Cc1cc2c(cc1Sc1nc3c(N)ncn(CCC4CCN(C(=O)C5CC5(F)F)CC4)c-3n1)OCO2` (stereo not drawn) [compound 40, 6-{[6-Amino-3-(2-{1-[(2,2-difluorocyclopropyl)carbonyl]piperidin-4-yl}ethyl)-3H-purin-8-yl]thio}-1,3-benzodioxole-5-carbonitrile], the “GM displacement from purified Hsp90 measured by FP Inhibition by 5 μM compd. (%)” value is recorded as 33.0%. Take `CS(=O)(=O)N1CCCC(CCn2cnc(N)c3nc(Sc4cc5c(cc4C#N)OCO5)nc2-3)C1` (stereo not drawn) [compound 48, 6-[(6-Amino-3-{2-[1-(methylsulfonyl)piperidin-3-yl]ethyl}-3H-purin-8-yl)thio]-1,3-benzodioxole-5-carbonitrile]: the “GM displacement from purified Hsp90 measured by FP Inhibition by 5 μM compd. (%)” value turned out to be 77.0%. With `CS(=O)(=O)N1CCCC(CCn2cnc(N)c3nc(Sc4cc5c(cc4C#N)OCCO5)nc2-3)C1` (stereo not drawn) [compound 53, 7-[(6-Amino-3-{2-[1-(methylsulfonyl)piperidin-3-yl]ethyl}-3H-purin-8-yl)thio]-2,3-dihydro-1,4-benzodioxine-6-carbonitrile], the “GM displacement from purified Hsp90 measured by FP Inhibition by 5 μM compd. (%)” value came out at 60.0%.

The same assay, now with this note: BODIPY-GM 10 nM, Hsp90 30 nM, overnight at room temperature; read-out: GM displacement from purified Hsp90 measured by FP IC 50.
On to `CC(C)C(=O)N1CCC(CCn2c(Sc3cc4c(cc3Br)OCO4)nc3c(N)ncnc32)CC1` [compound 25, 8-[(6-Bromo-1,3-benzodioxol-5-yl)thio]-9-[2-(1-isobutyrylpiperidin-4-yl)ethyl]-9H-purin-6-amine], for which the IC50 worked out at 110 nM. Consider `CCN(CC)C(=O)CN1CCC(CCn2c(Sc3cc4c(cc3Br)OCCO4)nc3c(N)ncnc32)CC1` [compound 27, 2-[4-(2-{6-Amino-8-[(7-bromo-2,3-dihydro-1,4-benzodioxin-6-yl)thio]-9H-purin-9-yl}ethyl)piperidin-1-yl]-N,N-diethylacetamide], for which the IC50 is 110 nM. Regarding `Nc1ncnc2c1nc(Sc1cc3c(cc1Br)OCO3)n2CCn1c(=O)n2n(c1=O)CC=CC2` [compound 29, 2-(2-{6-Amino-8-[(6-bromo-1,3-benzodioxol-5-yl)thio]-9H-purin-9-yl}ethyl)-5,8-dihydro-1H-[1,2,4]triazolo[1,2-a]pyridazine-1,3(2H)-dione], the IC50 came to 1800 nM. `Nc1ncnc2c1nc(Sc1cc3c(cc1Br)OCO3)n2CCCn1c(=O)n2n(c1=O)CC=CC2` [compound 31]: the IC50 amounted to 900 nM. Same read-out and setting: in the case of `COCC(=O)N1CCC(CCn2c(Sc3cc4c(cc3C#N)OCO4)nc3c(N)ncnc32)CC1` [compound 33, 6-[(6-Amino-9-{2-[1-(methoxyacetyl)piperidin-4-yl]ethyl}-9H-purin-8-yl)thio]-1,3-benzodioxole-5-carbonitrile] it was 300 nM; in that of `CO[C@H](C)C(=O)N1CCC(CCn2c(Sc3cc4c(cc3C#N)OCO4)nc3c(N)ncnc32)CC1` [compound 35, 6-{[6-Amino-9-(2-{1-[(2R)-2-methoxypropanoyl]piperidin-4-yl}ethyl)-9H-purin-8-yl]thio}-1,3-benzodioxole-5-carbonitrile], 500 nM; in that of `CO[C@@H](C)C(=O)N1CCC(CCn2c(Sc3cc4c(cc3C#N)OCO4)nc3c(N)ncnc32)CC1` [compound 37, 6-{[6-Amino-9-(2-{1-[(2S)-2-methoxypropanoyl]piperidin-4-yl}ethyl)-9H-purin-8-yl]thio}-1,3-benzodioxole-5-carbonitrile], 550 nM. Regarding `N#Cc1cc2c(cc1Sc1nc3c(N)ncnc3n1CCC1CCN(C(=O)C3CC3(F)F)CC1)OCO2` (stereo not drawn) [compound 39, 6-{[6-Amino-9-(2-{1-[(2,2-difluorocyclopropyl)carbonyl]piperidin-4-yl}ethyl)-9H-purin-8-yl]thio}-1,3-benzodioxole-5-carbonitrile], the IC50 turned out to be 200 nM. Consider `COCCC(=O)N1CCC(CCn2c(Sc3cc4c(cc3C#N)OCO4)nc3c(N)ncnc32)CC1` [compound 41, 6-[(6-Amino-9-{2-[1-(3-methoxypropanoyl)piperidin-4-yl]ethyl}-9H-purin-8-yl)thio]-1,3-benzodioxole-5-carbonitrile], for which the IC50 came out at 480 nM. With `COCCOCC(=O)N1CCC(CCn2c(Sc3cc4c(cc3C#N)OCO4)nc3c(N)ncnc32)CC1` [compound 42, 6-{[6-Amino-9-(2-{1-[(2-methoxyethoxy)acetyl]piperidin-4-yl}ethyl)-9H-purin-8-yl]thio}-1,3-benzodioxole-5-carbonitrile], the IC50 worked out at 500 nM. In the case of `CO[C@@H](C)C(=O)N1CCC(CCn2c(Sc3cc4c(cc3C#N)OCCO4)nc3c(N)ncnc32)CC1` [compound 43, 7-{[6-Amino-9-(2-{1-[(2S)-2-methoxypropanoyl]piperidin-4-yl}ethyl)-9H-purin-8-yl]thio}-2,3-dihydro-1,4-benzodioxine-6-carbonitrile], the IC50 came out at 320 nM. Regarding `CO[C@H](C)C(=O)N1CCC(CCn2c(Sc3cc4c(cc3C#N)OCCO4)nc3c(N)ncnc32)CC1` [compound 44, 7-{[6-Amino-9-(2-{1-[(2R)-2-methoxypropanoyl]piperidin-4-yl}ethyl)-9H-purin-8-yl]thio}-2,3-dihydro-1,4-benzodioxine-6-carbonitrile], the IC50 is 300 nM. Still for that read-out and setting: the figure for `COCC(=O)N1CCC(CCn2c(Sc3cc4c(cc3C#N)OCCO4)nc3c(N)ncnc32)CC1` [compound 45, 7-[(6-Amino-9-{2-[1-(methoxyacetyl)piperidin-4-yl]ethyl}-9H-purin-8-yl)thio]-2,3-dihydro-1,4-benzodioxine-6-carbonitrile] is 220 nM; for `CS(=O)(=O)N1CCCCC1CCn1c(Sc2cc3c(cc2C#N)OCO3)nc2c(N)ncnc21` (stereo not drawn) [compound 46, 6-[(6-Amino-9-{2-[1-(methylsulfonyl)piperidin-2-yl]ethyl}-9H-purin-8-yl)thio]-1,3-benzodioxole-5-carbonitrile] it is 700 nM; for `CS(=O)(=O)N1CCCC(CCn2c(Sc3cc4c(cc3C#N)OCO4)nc3c(N)ncnc32)C1` (stereo not drawn) [compound 47, 6-[(6-Amino-9 {2-[1-(methylsulfonyl)piperidin-3-yl]ethyl}-9H-purin-8-yl)thio]-1,3-benzodioxole-5-carbonitrile] it is 90 nM.

Take `CS(=O)(=O)N1CCC(CCn2c(Sc3cc4c(cc3C#N)OCO4)nc3c(N)ncnc32)CC1` [compound 49, 6-[(6-Amino-9-{2-[1-(methylsulfonyl)piperidin-4-yl]ethyl}-9H-purin-8-yl)thio]-1,3-benzodioxole-5-carbonitrile]: the IC50 came to 480 nM. For the compound `CCCN1CCCCC1CCn1c(Sc2cc3c(cc2C#N)OCO3)nc2c(N)ncnc21` (stereo not drawn) [compound 50, 6-({6-Amino-9-[2-(1-propylpiperidin-2-yl)ethyl]-9H-purin-8-yl}thio)-1,3-benzodioxole-5-carbonitrile], the IC50 amounted to 1200 nM.

For `CS(=O)(=O)N1CCCCC1CCn1c(Sc2cc3c(cc2C#N)OCCO3)nc2c(N)ncnc21` (stereo not drawn) [compound 51, 7-[(6-Amino-9-{2-[1-(methylsulfonyl)piperidin-2-yl]ethyl}-9H-purin-8-yl)thio]-2,3-dihydro-1,4-benzodioxine-6-carbonitrile], the IC50 turned out to be 370 nM.

In the case of `CS(=O)(=O)N1CCCC(CCn2c(Sc3cc4c(cc3C#N)OCCO4)nc3c(N)ncnc32)C1` (stereo not drawn) [compound 52, 7-[(6-Amino-9-{2-[1-(methylsulfonyl)piperidin-3-yl]ethyl}-9H-purin-8-yl)thio]-2,3-dihydro-1,4-benzodioxine-6-carbonitrile], the IC50 amounted to 150 nM.

As to `CS(=O)(=O)N1CCC(CCn2c(Sc3cc4c(cc3C#N)OCCO4)nc3c(N)ncnc32)CC1` [compound 54, 7-[(6-Amino-9-{2-[1-(methylsulfonyl)piperidin-4-yl]ethyl}-9H-purin-8-yl)thio]-2,3-dihydro-1,4-benzodioxine-6-carbonitrile], the IC50 is 550 nM.

(Values after patent publication US20100292255A1, “Therapeutic Compounds and Their Use in Treating Diseases and Disorders” (Myriad Pharmaceuticals, Inc., priority 2007, published 2010).)
